Experiments:
pigweed = experiment: Test B pre/postemergence pigweed; type: in vivo, Amaranthus retroflexus
How it was run: (§1)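 Herbicidal effect was estimated by eye on a ten-point control scale after plants spent twelve to sixteen days in a greenhouse following soil or foliar treatment. Foliar sprays targeted plants at one to four leaves; all doses were formulated in a non-phytotoxic solvent with surfactant.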

giant foxtail = experiment: Test B pre/postemergence giant foxtail; type: in vivo, Setaria faberii
How it was run: as §1

crabgrass = experiment: Test B pre/postemergence crabgrass; type: in vivo, Digitaria sanguinalis
How it was run: as §1

cocklebur = experiment: Test B pre/postemergence cocklebur; type: in vivo, Xanthium strumarium
How it was run: as §1

sugar beet = experiment: Test B pre/postemergence sugar beet; type: in vivo, Beta vulgaris
How it was run: as §1

duck salad = experiment: Test B flood test duck salad; type: in vivo, Heteranthera limosa
How it was run: (§2)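 Each value is a visual injury score relative to controls, with 10 meaning complete control and 0 no effect. Evaluation took place twelve to sixteen days after the 2-leaf-stage plants were treated and kept in the greenhouse.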

corn = experiment: Test B pre/postemergence corn; type: in vivo, Zea mays
How it was run: as §1

wheat = experiment: Test B pre/postemergence wheat; type: in vivo, Triticum aestivum
How it was run: as §1

wild oat = experiment: Test B pre/postemergence wild oat; type: in vivo, Avena fatua
How it was run: as §1

rice = experiment: Test B flood test rice; type: in vivo, Oryza sativa
How it was run: as §2

bamyardgrass = experiment: Test B flood test barnyardgrass; type: in vivo, Echinochloa crus-galli
How it was run: as §2

soybean = experiment: Test B pre/postemergence soybean; type: in vivo, Glycine max
How it was run: as §1

velvetleaf = experiment: Test B pre/postemergence velvetleaf; type: in vivo, Abutilon theophrasti
How it was run: as §1

morningglory = experiment: Test B pre/postemergence morningglory; type: in vivo, Ipomoea hederacea
How it was run: as §1

rape = experiment: Test B pre/postemergence rape; type: in vivo, Brassica napus
How it was run: as §1

purple nutsedge = experiment: Test B pre/postemergence purple nutsedge; type: in vivo, Cyperus rotundus
How it was run: as §1

[1] = Postemergence, Rate 62 g/ha, scale of 0 to 10, 0 is no effect, 10 is complete control
[2] = Postemergence, Rate 125 g/ha, scale 0 to 10, 0 is no effect, 10 is complete control
[3] = Postemergence, Rate 500 g/ha, scale 0 to 10, 0 is no effect, 10 is complete control
[4] = Preemergence, Rate 62 g/ha, scale of 0 to 10 where 0 is no effect and 10 is complete control
[5] = Preemergence, Rate 125 g/ha, scale 0 to 10, 0 is no effect, 10 is complete control
[6] = Rate 250 g/ha, Postemergence, scale of 0 to 10 where 0 is no effect and 10 is complete control
[7] = Preemergence, Rate 500 g/ha, scale of 0 to 10 where 0 is no effect and 10 is complete control
[8] = Rate 62 g/ha, flood test species, Pre-emergence, visual evaluation after twelve to sixteen days
[9] = Rate 125 g/ha, under heading Pre-emergence, flood test species, visual evaluation after twelve to sixteen days
[10] = Rate 250 g/ha, Pre-emergence (flood test species), scale 0 to 10, 0 is no effect, 10 is complete control
[11] = Rate 500 g/ha, Pre-emergence section of Table B, 0 to 10 scale (0 no effect, 10 complete control)

CC(C)N(C(=O)n1oc(=O)n(CCC2OCCO2)c1=O)c1ccc(Cl)cc1 [Compound 531]
10: Giant foxtail plant response rating (giant foxtail; [5]) | Giant foxtail plant response rating (0 to 10 scale) (giant foxtail; Preemergence, Rate 250 g/ha) | Giant foxtail plant response rating (giant foxtail; [7]) | Plant response rating, Crabgrass (crabgrass; [3]) | Crabgrass plant response rating (crabgrass; [5]) | Crabgrass plant response rating (0 to 10 scale) (crabgrass; Preemergence, Rate 250 g/ha) | Crabgrass plant response rating (crabgrass; [7])
5: Plant response rating, Cocklebur (cocklebur; [3]) | Velvetleaf plant response rating (velvetleaf; [7])
4: Sugarbeets plant response rating (sugar beet; [5]) | Morningglory plant response rating (morningglory; [2]) | Plant response rating, Morningglory (morningglory; [6])
3: Sugarbeets plant response rating (0 to 10 scale) (sugar beet; Preemergence, Rate 250 g/ha) | Soybean plant response rating (soybean; [1]) | Soybean plant response rating (soybean; [2]) | Plant response rating, Velvetleaf (velvetleaf; [3]) | Plant response rating, Nutsedge (purple nutsedge; [3])
6: Plant response rating, Sugarbeets (sugar beet; [3]) | Plant response rating, Soybean (soybean; [3]) | Plant response rating, Soybean (soybean; [6])
9: Plant response rating, Giant foxtail (giant foxtail; [3]) | Plant response rating, Giant foxtail (giant foxtail; [4]) | Plant response rating, Giant foxtail (giant foxtail; [6]) | Plant response rating, Crabgrass (crabgrass; [6])
0: Redroot pigweed plant response rating (pigweed; [1]) | Redroot pigweed plant response rating (pigweed; [2]) | Plant response rating, Redroot pigweed (pigweed; [3]) | Plant response rating, Redroot pigweed (pigweed; [4]) | Redroot pigweed plant response rating (pigweed; [5]) | Redroot pigweed plant response rating (0 to 10 scale) (pigweed; Preemergence, Rate 250 g/ha) | Plant response rating, Redroot pigweed (pigweed; [6]) | Giant foxtail plant response rating (giant foxtail; [1]) | Cocklebur plant response rating (cocklebur; [1]) | Cocklebur plant response rating (cocklebur; [2]) | Plant response rating, Cocklebur (cocklebur; [4]) | Cocklebur plant response rating (cocklebur; [5]) | Cocklebur plant response rating (0 to 10 scale) (cocklebur; Preemergence, Rate 250 g/ha) | Cocklebur plant response rating (cocklebur; [7]) | Sugarbeets plant response rating (sugar beet; [1]) | Sugarbeets plant response rating (sugar beet; [2]) | Plant response rating, Sugarbeets (sugar beet; [4]) | Plant response rating, Sugarbeets (sugar beet; [6]) | Plant response rating, Ducksalad (0 to 10 scale, 0 is no effect, 10 is complete control) (duck salad; [8]) | Ducksalad plant response rating (0 to 10 scale, 0 is no effect, 10 is complete control) (duck salad; [9]) | Ducksalad plant response rating (duck salad; [10]) | Ducksalad plant response rating (duck salad; [11]) | Corn plant response rating (corn; [1]) | Corn plant response rating (corn; [2]) | Plant response rating, Corn (corn; [3]) | Plant response rating, Corn (corn; [4]) | Corn plant response rating (corn; [5]) | Corn plant response rating (0 to 10 scale) (corn; Preemergence, Rate 250 g/ha) | Corn plant response rating (corn; [7]) | Plant response rating, Corn (corn; [6]) | Wheat plant response rating (wheat; [1]) | Wheat plant response rating (wheat; [2]) | Plant response rating, Wheat (wheat; [3]) | Plant response rating, Wheat (wheat; [4]) | Wheat plant response rating (wheat; [5]) | Wheat plant response rating (0 to 10 scale) (wheat; Preemergence, Rate 250 g/ha) | Plant response rating, Wheat (wheat; [6]) | Wild oats plant response rating (wild oat; [1]) | Wild oats plant response rating (wild oat; [2]) | Plant response rating, Wild oats (wild oat; [3]) | Plant response rating, Wild oats (wild oat; [4]) | Wild oats plant response rating (wild oat; [5]) | Wild oats plant response rating (0 to 10 scale) (wild oat; Preemergence, Rate 250 g/ha) | Plant response rating, Wild oats (wild oat; [6]) | Plant response rating, Rice (0 to 10 scale, 0 is no effect, 10 is complete control) (rice; [8]) | Rice plant response rating (0 to 10 scale, 0 is no effect, 10 is complete control) (rice; [9]) | Rice plant response rating (rice; [10]) | Rice plant response rating (rice; [11]) | Plant response rating, Barnyardgrass (0 to 10 scale, 0 is no effect, 10 is complete control) (bamyardgrass; [8]) | Barnyardgrass plant response rating (0 to 10 scale, 0 is no effect, 10 is complete control) (bamyardgrass; [9]) | Barnyardgrass plant response rating (bamyardgrass; [10]) | Barnyardgrass plant response rating (bamyardgrass; [11]) | Plant response rating, Soybean (soybean; [4]) | Soybean plant response rating (soybean; [5]) | Soybean plant response rating (0 to 10 scale) (soybean; Preemergence, Rate 250 g/ha) | Soybean plant response rating (soybean; [7]) | Velvetleaf plant response rating (velvetleaf; [1]) | Velvetleaf plant response rating (velvetleaf; [2]) | Plant response rating, Velvetleaf (velvetleaf; [4]) | Velvetleaf plant response rating (velvetleaf; [5]) | Plant response rating, Velvetleaf (velvetleaf; [6]) | Plant response rating, Morningglory (morningglory; [4]) | Morningglory plant response rating (morningglory; [5]) | Morningglory plant response rating (0 to 10 scale) (morningglory; Preemergence, Rate 250 g/ha) | Morningglory plant response rating (morningglory; [7]) | Rape plant response rating (rape; [1]) | Rape plant response rating (rape; [2]) | Plant response rating, Rape (rape; [4]) | Rape plant response rating (rape; [5]) | Rape plant response rating (0 to 10 scale) (rape; Preemergence, Rate 250 g/ha) | Plant response rating, Rape (rape; [6]) | Nutsedge plant response rating (purple nutsedge; [1]) | Nutsedge plant response rating (purple nutsedge; [2]) | Plant response rating, Nutsedge (purple nutsedge; [4]) | Nutsedge plant response rating (purple nutsedge; [5]) | Nutsedge plant response rating (0 to 10 scale) (purple nutsedge; Preemergence, Rate 250 g/ha) | Nutsedge plant response rating (purple nutsedge; [7]) | Plant response rating, Nutsedge (purple nutsedge; [6])
2: Crabgrass plant response rating (crabgrass; [1]) | Plant response rating, Cocklebur (cocklebur; [6]) | Velvetleaf plant response rating (0 to 10 scale) (velvetleaf; Preemergence, Rate 250 g/ha) | Morningglory plant response rating (morningglory; [1]) | Plant response rating, Rape (rape; [3])
8: Giant foxtail plant response rating (giant foxtail; [2]) | Crabgrass plant response rating (crabgrass; [2]) | Plant response rating, Crabgrass (crabgrass; [4])
